{
  "source": "patent US12392781B2",
  "about": "“Deuterated indole heptamethine cyanine dyes” (University of Notre Dame du Lac, priority 2021, dated 2025)",
  "key": {"[1]": {"assay": "Stability of 1.0 mM aqueous stock solutions at room temperature under low photon intensity storage (1H NMR, reverse phase TLC)", "details": "for Stability of stored stock solution, ICG versus ICG-d5 (degradation to oxidative dimer): one week; for Stability of stored stock solution, ICG versus ICG-d5 (degradation to oxidative dimer) / Conversion to oxidative dimer: reverse phase TLC; for Conversion to oxidative dimer: 3-day old 1.0 mM stock solution, primarily in the dark at room temperature", "protocol": "Every day, a 50 μL aliquot was removed from each stock solution, lyophilized, and stored as a solid at −20° C.\nAt each time point, a 1.0 mL aliquot was taken from the stock solution, the aliquot was lyophilized, the solid residue was dissolved in 0.60 mL of methanol-d4, and a ^1H NMR spectrum was acquired.\nThe solutions were stored at room temperature and low photon intensity conditions (only exposed to lab lights during sample preparation and when aliquots were removed from samples). After 72 h and 120 h, 1 mL aliquots were taken from each stock solution and lyophilized. In each case, the solid residue was dissolved in 0.6 mL of methanol-d4 and a ^1H NMR spectrum was recorded.\nThe second set of dye stability experiments were designed to mimic the low photon intensity storage conditions experienced by a typical reconstituted dose in water before it is administered in a clinical setting. Thus, stock solutions of the dyes were exposed to the atmosphere and laboratory lights during the initial reconstitution and periodic sampling, but otherwise stored as capped vials in the dark at room temperature."}, "[2]": {"target": "bovine serum albumin (BSA) (Bos taurus, UniProt P02769)", "sequence (P02769 25-607)": "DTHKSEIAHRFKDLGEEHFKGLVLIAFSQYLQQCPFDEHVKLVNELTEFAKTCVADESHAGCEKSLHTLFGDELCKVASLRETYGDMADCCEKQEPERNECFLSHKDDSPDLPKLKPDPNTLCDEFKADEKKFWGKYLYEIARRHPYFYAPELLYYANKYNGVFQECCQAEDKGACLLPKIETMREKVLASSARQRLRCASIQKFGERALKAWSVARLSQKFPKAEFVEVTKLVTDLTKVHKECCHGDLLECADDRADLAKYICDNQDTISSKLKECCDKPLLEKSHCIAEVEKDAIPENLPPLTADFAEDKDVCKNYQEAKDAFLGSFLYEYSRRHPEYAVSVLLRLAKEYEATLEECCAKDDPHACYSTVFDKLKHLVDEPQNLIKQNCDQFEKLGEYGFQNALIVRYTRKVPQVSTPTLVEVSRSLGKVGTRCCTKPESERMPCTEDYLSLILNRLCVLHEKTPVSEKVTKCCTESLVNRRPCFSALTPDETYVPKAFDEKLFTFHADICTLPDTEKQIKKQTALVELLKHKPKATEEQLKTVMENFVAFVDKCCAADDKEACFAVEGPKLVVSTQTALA", "assay": "Bovine serum albumin (BSA) binding by tryptophan fluorescence quenching titration", "details": "pH 7.4 PBS buffer, 37° C.; for Association constant Ka, titration isotherm fitted to 1:1 model: N=3", "method": "The titration experiments measured quenching of bovine serum albumin (BSA, 1 mL of 2 μM solution in pH 7.4 PBS buffer) tryptophan fluorescence at 37° C. as dye was added incrementally. A fluorescence spectrum (ex: 280 nm, slit width: 2 nm) was acquired after each dye aliquot was added (2 μL of 1 mM dye stock solutions in water). After each aliquot addition, the solution was mixed and allowed to equilibrate at 37° C. for 5 min before spectral acquisition. Association constants were determined by plotting the change in fluorescence intensity at 345 nm verses molar equivalents using 1:1 binding stoichiometry on the BindFit software. Experiments were done in triplicates. Equations for determining association and dissociation constant are shown below:\n[formula] [formula] where F is the fluorescence intensity of tryptophan after adding certain amount of dye, k is the proportionality constant for BSA tryptophan under the experimental condition, Ka is the association constant, [BSA]"}, "[3]": {"assay": "Stability of 1.0 mM aqueous solutions stored at 4° C. in the dark (1H NMR)", "format": "physicochemical", "details": "for Purity of aqueous solution: 1.0 mM", "method": "After 7 days and 28 days (separate samples), 1 mL aliquots were taken from each stock solution, the solutions were lyophilized, the solid residue was dissolved in methanol-d4 and ^1H NMR spectra were acquired.\nAfter 7 days and 28 days (separate samples), 1 mL aliquots were taken from each stock solution, the solutions were lyophilized, the solid residue dissolved in methanol-d4 and ^1H NMR spectra were acquired."}, "[4]": {"assay": "Photophysical properties at room temperature (absorption, fluorescence, quantum yield)", "format": "physicochemical", "details": "for λ abs max / λ em max / ε: room temperature; for ε: Beer-Lambert fit 1-5 μM; for ΦF (fluorescence quantum yield): absolute (integrating sphere) for ICG, ICG-d5, ICG-d7, relative to ICG for 1; for Brightness: in M^-1 cm^-1 (unit assumed)", "method": "Reagents and solvents were purchased from Sigma-Aldrich, VWR, Oakwood, Thermo Fisher and used without further purification unless stated otherwise. Column chromatography was performed using Biotage Sfär C18 Duo columns (part #FSUD-0401). Reverse- phase thin layer chromatography (TLC) experiments were performed on C18 TLC plates with F254s indicator (MilliporeSigma, part #1.15683). ^1H NMR spectra were recorded on a Bruker 500 NMR spectrometer. Chemical shifts are presented in ppm and referenced by residual solvent peak. High-resolution mass spectrometry (HRMS) was performed using a time-of-flight (TOF) analyzer with electrospray ionization (ESI), with sample dilution in water/acetonitrile as the standard produre. Electronic absorption spectra were recorded on an Evolution 201 UV/vis spectrometer with Thermo Insight software. Fluorescence spectra were collected on a Horiba Fluoromax-4 fluorometer with a maximum detection wavelength of 850 nm. Analyte solutions were prepared on the lab bench (exposed to air and light) using in HPLC grade water (Sigma-Aldrich), dimethylsulfoxide (Sigma-Aldrich), pH 7.4 1× phosphate buffered saline (Thermo Fisher) or fetal bovine serum (Sigma-Aldrich). Stock solutions for spectroscopy studies were prepared and used within 2 hours. All absorption and fluorescence spectra were collected using quartz cuvettes (1 mL, 1 cm path length).\nSamples were excited at 730 nm with optical density≤0.05. First, photons were recorded with an integrating sphere after the excitation of a blank solvent reference, then the reference was replaced by a sample solution, and the spectrum (720-875 nm) was acquired again. The quantum yield was calculated by the equation below:\n[formula] where P is the number of photons, F is the fluorescence intensity and E is the intensity at the excitation wavelength. Experiments were conducted in triplicate, with the reported absolute quantum yields corresponding to the mean value±standard deviation.\nThe fluorescence spectrum of each solution was obtained with excitation at 720 nm, and the integrated area was used to calculate the quantum yield according to the following equation:\n[formula] where η is the refractive index of the solvent, I is the integrated fluorescence intensity, and A is the absorbance at a chosen wavelength. The estimated error for this method is ±15%."}, "[5]": {"details": "20 μg/mL solution in water, 24 hours; cited from earlier work"}, "[6]": {"assay": "Photobleaching under high intensity irradiation (150 W Xenon lamp, 620 nm long-pass filter)", "details": "6 h irradiation, 1.0 mM or 0.05 mM in water or ethanol, TLC"}, "[7]": {"details": "cited from earlier work"}, "[8]": {"details": "1.0 mM in water, room temperature, low photon intensity, storage 72 h, 1H NMR"}, "[9]": {"details": "1.0 mM in water, room temperature, low photon intensity, storage 120 h, 1H NMR"}, "[10]": {"details": "1.0 mM in water, room temperature"}},
  "note": "“Also recorded” adds a separate entry of the source.",
  "data": [
    {"compound": "[2H]C(=C\\C1=[N+](CCCCS(=O)(=O)[O-])c2ccc3ccccc3c2C1(C)C)/C([2H])=C([2H])/C([2H])=C([2H])/C=C1/N(CCCCS(=O)(=O)[O-])c2ccc3ccccc3c2C1(C)C.[Na+]", "note": "[ICG-d5, Indocyanine Green-d5]", "values": [
      {"measurement": "Weight percentage remaining in aqueous stock solution", "setting": "[1]; [8]", "result": "86.0 ± 0.8", "unit": "wt %"},
      {"measurement": "Weight percentage remaining in aqueous stock solution", "setting": "[1]; [9]", "result": "80.9 ± 1.2", "unit": "wt %"},
      {"measurement": "Stability of stored stock solution, ICG versus ICG-d5 (degradation to oxidative dimer)", "setting": "[1]; [10]", "result": "substantially more stable"},
      {"measurement": "Conversion to oxidative dimer", "setting": "[1]", "result": "~2", "unit": "%"},
      {"measurement": "Association constant Ka, titration isotherm fitted to 1:1 model", "setting": "[2]", "result": "(3.8±0.6)×10^5 M^−1"},
      {"measurement": "Purity of aqueous solution", "setting": "[3]; 7 days storage", "result": 99, "unit": "%"},
      {"measurement": "Purity of aqueous solution", "setting": "[3]; 28 days storage", "result": 85, "unit": "%"},
      {"measurement": "Stability of stock solution in a refrigerator", "setting": "[3]; 7 and 28 days", "result": "increased stability in a refrigerator"},
      {"measurement": "λ abs max", "setting": "[4]; DMSO", "result": 793, "unit": "nm"},
      {"measurement": "λ em max", "setting": "[4]; DMSO", "result": 819, "unit": "nm"},
      {"measurement": "ε", "setting": "[4]; DMSO", "result": "253,000 M^−1cm^−1"},
      {"measurement": "ΦF (fluorescence quantum yield)", "setting": "[4]; DMSO", "result": "19.8 ± 0.5", "unit": "%"},
      {"measurement": "Brightness", "setting": "[4]; DMSO", "result": "49,000"},
      {"measurement": "λ abs max", "setting": "[4]; FBS", "result": 796, "unit": "nm"},
      {"measurement": "λ em max", "setting": "[4]; FBS", "result": 813, "unit": "nm"},
      {"measurement": "ε", "setting": "[4]; FBS", "result": "205,000 M^−1cm^−1"},
      {"measurement": "ΦF (fluorescence quantum yield)", "setting": "[4]; FBS", "result": "10.5 ± 0.3", "unit": "%"},
      {"measurement": "Brightness", "setting": "[4]; FBS", "result": "21,000"}
    ]},
    {"compound": "CC1(C)C(=CC=CC=C(C=CC2=[N+](CCCCS(=O)(=O)[O-])c3ccc4ccccc4c3C2(C)C)C(C=CC2=[N+](CCCCS(=O)(=O)[O-])c3ccc4ccccc4c3C2(C)C)=CC=CC=C2N(CCCCS(=O)(=O)O)c3ccc4ccccc4c3C2(C)C)N(CCCCS(=O)(=O)O)c2ccc3ccccc3c21", "note": "[compound 1]", "values": [
      {"measurement": "Kd", "setting": "[2]; fluorescence titration, 2 μM BSA, read-out: Dissociation constant (Kd) of BSA binding", "result": 34, "unit": "µM"}
    ]},
    {"compound": "CC1(C)C(/C=C/C=C/C=C/C=C2/N(CCCCS(=O)(=O)[O-])c3ccc4ccccc4c3C2(C)C)=[N+](CCCCS(=O)(=O)[O-])c2ccc3ccccc3c21.[Na+]", "note": "[ICG, Indocyanine Green, reference compound]", "values": [
      {"measurement": "ICG remaining", "setting": "[5]", "result": 20, "unit": "%"},
      {"measurement": "Effect of H2O2 on formation of oxidative dimer 1", "setting": "[1]; 1.0 mM in water, 5 h, H2O2 10 molar equivalents, TLC", "result": "higher amount of oxidative dimer 1"},
      {"measurement": "Effect of air and light exposure on formation of oxidative dimer 1", "setting": "[1]; 1.0 mM in water, 30 h, room temperature, TLC and NMR", "result": "inhibits formation of oxidative dimer 1"},
      {"measurement": "Effect of additives on dimerization to oxidative dimer 1", "setting": "[1]; 1 mM in water, additives 10 molar equivalents, 24 h, room temperature, low photon intensity, TLC", "result": "promoted by the presence of NaI; also recorded: stopped by base (NaHCO3 and NaOAc), singlet oxygen quencher (NaN3) and reductant (Na2SO3 and Na ascorbate)"},
      {"measurement": "Weight percentage remaining in aqueous stock solution", "setting": "[1]; [8]", "result": "73.6 ± 1.7", "unit": "wt %"},
      {"measurement": "Weight percentage remaining in aqueous stock solution", "setting": "[1]; [9]", "result": "67.4 ± 1.0", "unit": "wt %"},
      {"measurement": "Stability of stored stock solution, ICG versus ICG-d5 (degradation to oxidative dimer)", "setting": "[1]; [10]", "result": "more degradation"},
      {"measurement": "Dimerization in water versus ethanol", "setting": "[1]; 1.0 mM, 48 h, room temperature, low photon intensity, TLC", "result": "favored in water"},
      {"measurement": "Conversion to oxidative dimer", "setting": "[1]", "result": "~20", "unit": "%"},
      {"measurement": "Degradation to oxidative dimer 1 versus concentration", "setting": "[1]; water, different concentrations, 72 h, room temperature, low photon intensity, 1H NMR", "result": "slower at higher concentrations"},
      {"measurement": "Photostability versus concentration and solvent", "setting": "[6]", "result": "1.0 mM ICG solution in water is more photostable than a 0.05 mM ICG solution in water"},
      {"measurement": "Water solubility", "setting": "[7]", "result": 1000, "unit": "µg/mL"},
      {"measurement": "Association constant Ka, titration isotherm fitted to 1:1 model", "setting": "[2]", "result": "(3.4±0.5)×10^5 M^−1"},
      {"measurement": "Purity of aqueous solution", "setting": "[3]; 7 days storage", "result": 85, "unit": "%"},
      {"measurement": "Purity of aqueous solution", "setting": "[3]; 28 days storage", "result": 52, "unit": "%"},
      {"measurement": "λ abs max", "setting": "[4]; DMSO", "result": 795, "unit": "nm"},
      {"measurement": "λ em max", "setting": "[4]; DMSO", "result": 820, "unit": "nm"},
      {"measurement": "ε", "setting": "[4]; DMSO", "result": "224,000 M^−1cm^−1"},
      {"measurement": "ΦF (fluorescence quantum yield)", "setting": "[4]; DMSO", "result": "16.7 ± 0.6", "unit": "%"},
      {"measurement": "Brightness", "setting": "[4]; DMSO", "result": "37,000"},
      {"measurement": "λ abs max", "setting": "[4]; FBS", "result": 800, "unit": "nm"},
      {"measurement": "λ em max", "setting": "[4]; FBS", "result": 813, "unit": "nm"},
      {"measurement": "ε", "setting": "[4]; FBS", "result": "197,000 M^−1cm^−1"},
      {"measurement": "ΦF (fluorescence quantum yield)", "setting": "[4]; FBS", "result": "9.7 ± 0.4", "unit": "%"},
      {"measurement": "Brightness", "setting": "[4]; FBS", "result": "19,000"}
    ]}
  ]
}
